Key:
Assay in all cases: relative viability (nuclei count vs DMSO), 5 days (fraction); higher = more cells survive
[1] = compound: C[C@@]1(C(=O)Nc2ccc(F)nc2)CCCN1c1nc(Nc2cc(C3CC3)n[nH]2)c2cccn2n1 + CC1(C)CCC(c2ccc(Cl)cc2)=C(CN2CCN(c3ccc(C(=O)NS(=O)(=O)c4ccc(N[C@H](CCN5CCOCC5)CSc5ccccc5)c(S(=O)(=O)C(F)(F)F)c4)cc3)CC2)C1 [Navitoclax] (partner 0.5 µM)
How it was run: (§1)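 Lung cancer cell lines in 1536-well plates were dosed by pin tool the day after seeding, either with one drug alone or with a fixed anchor-drug dose plus five library-drug doses (not always all listed) in √10 steps. After 5 days, cells were fixed and their nuclei stained in one step (final 0.05% Triton X-100, 1% formaldehyde, 1 ug/ml Hoechst), then counted on 4× images. Relative viability is the nuclei count in treated wells divided by that in vehicle wells. Values are medians of duplicate plates.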

[2] = compound: C[C@@]1(C(=O)Nc2ccc(F)nc2)CCCN1c1nc(Nc2cc(C3CC3)n[nH]2)c2cccn2n1 + C[C@]1(O)C[C@@H](c2nc(-c3ccc4ccc(-c5ccccc5)nc4c3)c3c(N)nccn32)C1 [Linsitinib] (partner 1 µM)
How it was run: as §1

Motesanib + Tozasertib = compound: CC1(C)CNc2cc(NC(=O)c3cccnc3NCc3ccncc3)ccc21 [Motesanib] + Cc1cc(Nc2cc(N3CCN(C)CC3)nc(Sc3ccc(NC(=O)C4CC4)cc3)n2)n[nH]1 [Tozasertib] (partner 0.1 µM)
How it was run: as §1

[3] = compound: C[C@@]1(C(=O)Nc2ccc(F)nc2)CCCN1c1nc(Nc2cc(C3CC3)n[nH]2)c2cccn2n1 + CC(=O)c1c(C)c2cnc(Nc3ccc(N4CCNCC4)cn3)nc2n(C2CCCC2)c1=O [Palbociclib] (partner 0.5 µM)
How it was run: as §1

Cell Line	relative viability ([1]; first compound 0.04 µM)	relative viability ([1]; first compound 0.1265 µM)	relative viability ([1]; first compound 0.4 µM)	relative viability ([1]; first compound 1.265 µM)	relative viability ([2]; first compound 0.04 µM)	relative viability ([2]; first compound 0.1265 µM)	relative viability ([2]; first compound 0.4 µM)	relative viability ([2]; first compound 1.265 µM)	relative viability (Motesanib + Tozasertib; first compound 0.01 µM)	relative viability (Motesanib + Tozasertib; first compound 0.03162 µM)	relative viability (Motesanib + Tozasertib; first compound 0.1 µM)	relative viability (Motesanib + Tozasertib; first compound 0.3162 µM)	relative viability (Motesanib + Tozasertib; first compound 1 µM)	relative viability ([3]; first compound 0.04 µM)	relative viability ([3]; first compound 0.1265 µM)	relative viability ([3]; first compound 0.4 µM)	relative viability ([3]; first compound 1.265 µM)
NCI-H1793	0.31	0.304	0.378	0.351	0.863	0.961	0.573	0.992	0.37	0.268	0.422	0.321	0.302	0.367	0.294	0.225	0.289
NCI-H2023	0.89	0.703	0.654	0.702	0.699	0.619	0.537	0.657	0.379	0.309	0.346	0.325	0.286	0.255	0.22	0.174	0.209
COR-L 105	0.788	0.477	0.65	0.607	0.796	0.808	0.627	0.946	0.341	0.33	0.327	0.381	0.345	0.416	0.422	0.435	0.438
RERF-LC-KJ	0.842	0.579	0.846	0.592	0.868	0.818	0.838	0.857	0.536	0.478	0.527	0.501	0.505	1.03	0.946	0.943	0.845
LXF-289	0.987	0.917	0.941	0.991	1.02	0.947	0.936	1.02	0.228	0.182	0.184	0.27	0.212	0.644	0.541	0.62	0.661
PC-14	0.99	0.69	0.959	0.941	1.09	0.814	0.825	1.01	0.563	0.657	0.518	0.618	0.617	0.552	0.469	0.49	0.491
NCI-H1666	0.823	0.777	0.578	0.581	0.89	0.87	0.753	0.831	0.665	0.599	0.634	0.6	0.617	0.647	0.627	0.599	0.603
NCI-H2085	1.22	1.07	0.984	1.05	0.877	0.873	0.809	0.822	0.852	0.749	0.886	0.818	0.797	0.485	0.455	0.439	0.443
NCI-H1734	0.834	0.593	0.661	0.731	0.771	0.722	0.794	0.903	0.312	0.253	–	0.25	0.254	0.275	0.236	0.226	0.282
NCI-H2126	0.669	0.725	0.591	0.761	0.736	0.685	0.712	0.771	0.883	0.922	0.915	0.855	0.867	0.353	0.309	0.342	0.359
EMC-BAC-2	1.13	1.12	0.947	1.22	0.808	0.897	0.795	0.884	0.286	0.238	0.351	0.309	0.281	0.393	0.333	0.331	0.369
NCI-H1993	0.692	–	0.671	0.716	0.705	–	0.723	0.733	0.603	0.614	0.552	0.501	0.605	0.461	0.465	0.27	0.49
NCI-H520	1.16	0.988	1.04	1.11	0.951	0.867	0.915	1.07	0.37	0.371	0.453	0.45	0.447	0.254	0.196	0.201	0.218
NCI-H647	1.1	0.989	0.894	1.14	1.17	1.2	0.952	1.26	0.304	0.239	0.285	0.404	0.359	0.398	0.413	0.353	0.367
SK-LU-1	0.958	0.689	0.816	0.42	1.15	1.13	0.74	0.913	0.325	0.298	0.352	0.327	0.263	0.391	0.358	0.341	0.37
NCI-H2009	1.26	1.23	1.11	1.29	1.2	1.2	1.13	1.19	0.731	0.705	0.747	0.691	0.721	0.221	0.258	0.162	0.212
LOU-NH91	0.706	0.77	0.61	0.686	0.937	1.12	0.82	0.977	0.681	0.621	0.648	0.658	0.78	0.528	0.471	0.546	0.513
NCI-H2405	0.813	0.635	0.584	0.597	1.04	0.91	0.779	0.766	–	0.602	0.814	0.769	0.784	0.47	0.303	0.391	0.402

Cell Line	relative viability ([1]; first compound 0.04 µM)	relative viability ([1]; first compound 0.1265 µM)	relative viability ([1]; first compound 0.4 µM)	relative viability ([1]; first compound 1.265 µM)	relative viability ([2]; first compound 0.04 µM)	relative viability ([2]; first compound 0.1265 µM)	relative viability ([2]; first compound 0.4 µM)	relative viability ([2]; first compound 1.265 µM)	relative viability (Motesanib + Tozasertib; first compound 0.01 µM)	relative viability (Motesanib + Tozasertib; first compound 0.03162 µM)	relative viability (Motesanib + Tozasertib; first compound 0.1 µM)	relative viability (Motesanib + Tozasertib; first compound 0.3162 µM)	relative viability (Motesanib + Tozasertib; first compound 1 µM)	relative viability ([3]; first compound 0.04 µM)	relative viability ([3]; first compound 0.1265 µM)	relative viability ([3]; first compound 0.4 µM)	relative viability ([3]; first compound 1.265 µM)
LCLC-97TM1	0.117	0.32	0.196	0.324	0.191	0.173	0.163	0.207	0.2	0.178	0.257	0.279	0.17	0.0888	0.108	0.0814	0.145
NCI-H727	0.175	0.185	0.106	0.14	0.349	0.135	0.232	0.283	0.603	0.574	0.638	0.645	0.577	0.575	0.528	0.404	0.38
H3255	0.684	0.463	0.49	0.36	1.14	1.03	0.833	0.986	0.549	0.671	0.742	0.513	0.608	0.314	0.326	0.299	0.317
SK-MES-1	1.3	0.995	–	1.1	1.03	0.95	0.957	1.05	0.822	0.91	0.958	0.935	0.922	0.34	0.355	0.293	0.282
NCI-H1437	1.04	0.828	0.739	0.919	0.935	0.833	0.671	0.843	0.398	0.375	0.393	0.423	0.408	0.302	0.278	0.252	0.234
LU99A	0.652	0.71	0.491	0.574	0.544	0.497	0.499	0.467	0.262	0.234	0.263	0.273	0.263	0.273	0.208	0.173	0.26
HCC-827	1.02	1	1.01	1	0.94	0.973	0.945	0.961	0.405	0.425	0.464	0.48	0.431	0.418	0.466	0.48	0.459
LK-2	–	0.843	0.368	0.494	0.579	1.11	0.376	0.573	0.177	0.163	–	0.163	0.181	0.381	0.287	–	0.41
HCC-366	1.12	0.966	0.688	1.19	0.732	0.446	0.459	0.677	0.124	0.115	0.126	0.139	0.0819	0.338	0.313	0.28	0.243
BEN	0.0599	0.0547	0.0804	0.0539	0.895	1.24	0.766	1.04	0.505	0.529	0.627	0.547	0.543	0.445	0.484	0.472	0.427
NCI-H23	0.658	0.587	0.444	0.664	0.612	0.5	0.484	0.613	0.346	0.31	0.341	0.363	0.333	0.386	0.267	0.243	0.305
NCI-H1395	1.33	0.983	1.03	1.24	1.3	0.737	1.01	0.947	0.777	0.779	0.816	0.757	0.773	0.658	0.603	0.609	0.625
201T	1.15	1.09	1.11	1.16	0.97	0.97	0.908	1.04	0.888	0.833	1.05	0.923	0.97	0.317	0.264	0.311	0.365
NCI-H460	1.08	0.893	1.01	1.23	0.834	0.667	0.708	0.82	0.416	0.266	0.514	0.442	0.485	0.226	0.0841	0.058	0.143
HCC-15	0.663	0.561	0.528	0.58	0.902	0.885	0.782	0.981	0.454	0.278	0.372	0.451	0.392	0.667	0.579	0.529	0.598
NCI-H441	0.363	0.413	0.116	0.505	0.435	0.417	0.476	0.543	0.675	0.518	0.66	0.543	0.578	0.132	0.146	0.116	0.13
EPLC-272H	1.07	1.04	1.07	1.21	1.39	1.07	1.12	1.58	0.293	0.234	–	0.253	0.253	0.253	0.308	0.285	0.261

From the supplement of paper PMC10307832
